We go through four molecules from patent publication US8124581B2, “Methods for treating breast cancer using NRIF3 related molecules” (New York University, priority 2004, dated 2012).

For experiment [1], the system named is T-47D cells. The experiment can be described thus: Modulation of NRIF3- or DD1-mediated apoptosis in T-47D cells (TUNEL). The format is cell-based, human. On the procedure: (§1) Cell culture and transfection conditions. All breast cancer cell lines were maintained in DMEM (GIBCO-BRL, Life Technologies) supplemented with 10% fetal bovine serum (FBS). Other cells were cultured in DMEM supplemented with either 10% FBS or 10% Hyclone defined/supplemented bovine calf serum. For most of the transient transfections, T-47D cells were plated at a density of 3×10^4 cells/well on coverslips in 24-well tissue culture plates. About 20 h later, the cells were transfected with indicated plasmid(s) by Genefect transfection reagent (Molecula, USA) according to manufacturer's protocol. Generally, the amount of plasmids used in transfections was the following: GFP or GFP-fusion 300-500 ng, Bcl-2 or Bcl-xL 1-1.5 μg, AIF-GFP 500 ng, Gal4-DD1, GAl4-DD3 or Gal4 control 0.5-1 μg. After transfection, cells were incubated in DMEM/10% FBS medium for 5 h to 24 h before being harvested and processed for appropriate analyses. Transient transfection of other breast cancer cell lines were carried out similarly, except that the transfection reagent used was Lipofectamine 2000 (Life technologies). All other cells were transfected using Geneporter 2 (Gene Therapy Systems). When indicated, the following compounds were included in the medium: all-trans retinoic acid (100 nM), etopside (100 μM), zVAD-fmk (100 μM), zVDVAD-fmk (20 μM), TNFα (10 ng/ml) and cycloheximide (10 μg/ml).
siRNA studies. A small interference RNA (siRNA) duplex that efficiently silences human caspase-2 expression has been previously described (27), and was purchased from Dharmacon. The siRNA was dissolved at 20 pmol/μl in H2O. T-47D cells were plated at the density of 1.5×10^5 cells/well in 6-well plates the day before being transfected with siRNA. Transfection was carried out using Oligofectamine (Invitrogen), with 12 μl of dissolved siRNA and 12 μl of Oligofectamine reagent. Cells were fed with additional DMEM/10% FBS the second day, and harvested about 42 h after siRNA transfection. […] The harvested cells were then re-plated on cover-slips in 24-well plates as described earlier, and incubated for a few hours to let attachment occur. Cells were then transfected with the indicated GFP or GFP-fusion vectors as described earlier or treated with etoposide (100 μM). Cells were harvested about 20-24 h later and processed for appropriate assays. To document caspase-2 knock down, total lysates from siRNA transfected or control cells were quantified for protein concentrations. Equal amount of proteins were then subjected to SDS-PAGE, followed by Western analysis using a monoclonal antibody against caspase-2 (11B4, from Alexis).
Apoptosis assays. Cells plated on cover-slips in 24-well tissue culture plates were transfected and/or treated with appropriate compounds as indicated. Generally, cells were harvested within 20-24 h and processed for TUNEL and/or Annexin V assays. For Annexin V assay, cells were washed 3× with PBS and assayed using ApoAlert Nitric Oxide/Annexin V Dual Sensor Kit (BD Biosciences, USA) according to manufacturer's protocol. […] For quantitative analysis, fields consisting of at least several hundred cells were scanned, and a number of representative fields were photographed using GFP and rhodamine filters. Green and red cells from the same field were then counted. Generally, about one hundred of total green cells were counted for each data point. The percent of green cells counted that are also red were then calculated.

The test system of experiment [2] is HeLa cells. Nature of the experiment: Apoptosis of HeLa cells treated with TNFα and cycloheximide. The format is cell-based. The following applies: same dose (100 uM); data not shown. On the procedure: as §1
Experiment [3] relates to T-47D cells. Nature of the experiment: TUNEL apoptosis assay of transfected T-47D cells. The format is cell-based, human. The following applies: T-47D cells transfected with expression vector. The procedure: as §1, with “Transient transfection of other breast cancer cell lines were carried out similarly, except that the transfection reagent used was Lipofectamine 2000 (Life technologies). All other cells were transfected using Geneporter 2 (Gene Therapy Systems). When indicated, the following compounds were included in the medium: all-trans retinoic acid (100 nM), etopside (100 μM), zVAD-fmk (100 μM), zVDVAD-fmk (20 μM), TNFα (10 ng/ml) and cycloheximide (10 μg/ml).” left out
(§2) Apoptosis assays. […] For quantitative analysis, fields consisting of at least several hundred cells were scanned, and a number of representative fields were photographed using GFP and rhodamine filters. Green and red cells from the same field were then counted. Generally, about one hundred of total green cells were counted for each data point. The percent of green cells counted that are also red were then calculated.

The next experiment relates to AIF-GFP. Nature of the experiment: AIF-GFP translocation from mitochondria to nucleus in T-47D cells. The format is cell-based, human. The following applies: as early as 5 h after transfection. On the procedure: as §1, with “Transient transfection of other breast cancer cell lines were carried out similarly, except that the transfection reagent used was Lipofectamine 2000 (Life technologies). All other cells were transfected using Geneporter 2 (Gene Therapy Systems). When indicated, the following compounds were included in the medium: all-trans retinoic acid (100 nM), etopside (100 μM), zVAD-fmk (100 μM), zVDVAD-fmk (20 μM), TNFα (10 ng/ml) and cycloheximide (10 μg/ml).” left out
as §2

A further experiment deals with MCF-7 cells. The experiment can be described thus: TUNEL apoptosis assay of transfected MCF-7 cells. The format is cell-based, human. The following applies: MCF-7 (ER+). On the procedure:
as §1, with “Transient transfection of other breast cancer cell lines were carried out similarly, except that the transfection reagent used was Lipofectamine 2000 (Life technologies). All other cells were transfected using Geneporter 2 (Gene Therapy Systems). When indicated, the following compounds were included in the medium: all-trans retinoic acid (100 nM), etopside (100 μM), zVAD-fmk (100 μM), zVDVAD-fmk (20 μM), TNFα (10 ng/ml) and cycloheximide (10 μg/ml).” left out
as §2

In a further experiment the test system is MB-MDA-231 cells. The experiment can be described thus: TUNEL apoptosis assay of transfected MB-MDA-231 cells. Conditions: MB-MDA-231 (ER−). It is filed as cell-based, human. On the procedure:
as §1, with “Transient transfection of other breast cancer cell lines were carried out similarly, except that the transfection reagent used was Lipofectamine 2000 (Life technologies). All other cells were transfected using Geneporter 2 (Gene Therapy Systems). When indicated, the following compounds were included in the medium: all-trans retinoic acid (100 nM), etopside (100 μM), zVAD-fmk (100 μM), zVDVAD-fmk (20 μM), TNFα (10 ng/ml) and cycloheximide (10 μg/ml).” left out
as §2

The test system of another experiment is MB-MDA-435 cells. The experiment can be described thus: TUNEL apoptosis assay of transfected MB-MDA-435 cells. The format is cell-based, human. Conditions: MB-MDA-435 (ER−). The procedure: as §1, with “Transient transfection of other breast cancer cell lines were carried out similarly, except that the transfection reagent used was Lipofectamine 2000 (Life technologies). All other cells were transfected using Geneporter 2 (Gene Therapy Systems). When indicated, the following compounds were included in the medium: all-trans retinoic acid (100 nM), etopside (100 μM), zVAD-fmk (100 μM), zVDVAD-fmk (20 μM), TNFα (10 ng/ml) and cycloheximide (10 μg/ml).” left out
as §2

In experiment [4] the test system is ER+ derivative of MB-MDA-231. The experiment can be described thus: TUNEL apoptosis assay of transfected ER+ derivative of MB-MDA-231. The format is cell-based, human. The procedure: as §1, with “Transient transfection of other breast cancer cell lines were carried out similarly, except that the transfection reagent used was Lipofectamine 2000 (Life technologies). All other cells were transfected using Geneporter 2 (Gene Therapy Systems). When indicated, the following compounds were included in the medium: all-trans retinoic acid (100 nM), etopside (100 μM), zVAD-fmk (100 μM), zVDVAD-fmk (20 μM), TNFα (10 ng/ml) and cycloheximide (10 μg/ml).” left out
as §2

For another experiment, the system named is HBL100 cells. The experiment can be described thus: TUNEL apoptosis assay of transfected HBL100 cells. It is filed as cell-based. The following applies: HBL100, non-malignant immortalized breast epithelial cell line. The procedure:
as §1, with “Transient transfection of other breast cancer cell lines were carried out similarly, except that the transfection reagent used was Lipofectamine 2000 (Life technologies). All other cells were transfected using Geneporter 2 (Gene Therapy Systems). When indicated, the following compounds were included in the medium: all-trans retinoic acid (100 nM), etopside (100 μM), zVAD-fmk (100 μM), zVDVAD-fmk (20 μM), TNFα (10 ng/ml) and cycloheximide (10 μg/ml).” left out
as §2

In experiment [5] the test system is HeLa cells. Nature of the experiment: TUNEL apoptosis assay of transfected HeLa cells. It is filed as cell-based. The procedure: as §1, with “Transient transfection of other breast cancer cell lines were carried out similarly, except that the transfection reagent used was Lipofectamine 2000 (Life technologies). All other cells were transfected using Geneporter 2 (Gene Therapy Systems). When indicated, the following compounds were included in the medium: all-trans retinoic acid (100 nM), etopside (100 μM), zVAD-fmk (100 μM), zVDVAD-fmk (20 μM), TNFα (10 ng/ml) and cycloheximide (10 μg/ml).” left out
as §2

The subject of another experiment is 293. Nature of the experiment: TUNEL apoptosis assay of transfected 293 cells. It is filed as cell-based. The procedure: as §1, with “Transient transfection of other breast cancer cell lines were carried out similarly, except that the transfection reagent used was Lipofectamine 2000 (Life technologies). All other cells were transfected using Geneporter 2 (Gene Therapy Systems). When indicated, the following compounds were included in the medium: all-trans retinoic acid (100 nM), etopside (100 μM), zVAD-fmk (100 μM), zVDVAD-fmk (20 μM), TNFα (10 ng/ml) and cycloheximide (10 μg/ml).” left out
as §2

A further experiment has as its system COS-1. Nature of the experiment: TUNEL apoptosis assay of transfected COS-1 cells. It is filed as cell-based. The procedure:
as §1, with “Transient transfection of other breast cancer cell lines were carried out similarly, except that the transfection reagent used was Lipofectamine 2000 (Life technologies). All other cells were transfected using Geneporter 2 (Gene Therapy Systems). When indicated, the following compounds were included in the medium: all-trans retinoic acid (100 nM), etopside (100 μM), zVAD-fmk (100 μM), zVDVAD-fmk (20 μM), TNFα (10 ng/ml) and cycloheximide (10 μg/ml).” left out
as §2

The subject of another experiment is UOK-145. The experiment can be described thus: TUNEL apoptosis assay of transfected UOK-145 cells. It is filed as cell-based. On the procedure:
as §1, with “Transient transfection of other breast cancer cell lines were carried out similarly, except that the transfection reagent used was Lipofectamine 2000 (Life technologies). All other cells were transfected using Geneporter 2 (Gene Therapy Systems). When indicated, the following compounds were included in the medium: all-trans retinoic acid (100 nM), etopside (100 μM), zVAD-fmk (100 μM), zVDVAD-fmk (20 μM), TNFα (10 ng/ml) and cycloheximide (10 μg/ml).” left out
as §2

In the next experiment the test system is GH4C1. Nature of the experiment: TUNEL apoptosis assay of transfected GH4C1 cells. It is filed as cell-based. On the procedure:
as §1, with “Transient transfection of other breast cancer cell lines were carried out similarly, except that the transfection reagent used was Lipofectamine 2000 (Life technologies). All other cells were transfected using Geneporter 2 (Gene Therapy Systems). When indicated, the following compounds were included in the medium: all-trans retinoic acid (100 nM), etopside (100 μM), zVAD-fmk (100 μM), zVDVAD-fmk (20 μM), TNFα (10 ng/ml) and cycloheximide (10 μg/ml).” left out
as §2

Setting [6] is: 100 uM inhibitor prior to and after transfection, T-47D.

Entries after “also recorded” stand apart in the source; their conditions may differ. Where a SMILES comes first, the peptide text is derived from it. The star is where a group is joined. Cbz = O=C(OCc1ccccc1)*; CH2F = FC*

Take `COC(=O)C[C@H](NC(=O)[C@H](C)NC(=O)[C@@H](NC(=O)OCc1ccccc1)C(C)C)C(=O)CF` [zVAD-fmk] (Cbz-Val-Ala-Asp(OMe)-CH2F): in the experiment with T-47D cells [1] (setting [6]), the “effect on apoptosis mediated by GFP-NRIF3” value is recorded as “did not inhibit apoptosis” and the “effect on apoptosis mediated by GFPNLS-DD1” value is reported as “did not inhibit apoptosis”. Further, in the experiment with T-47D cells [1] (T-47D, no transfected death construct, data not shown), the “cell death caused by inhibitor alone” value is recorded as “did not cause cell death”. Also, the “effect on apoptosis of HeLa cells treated with TNFα and cycloheximide” value in the experiment on HeLa cells [2] is given as “significantly inhibit apoptosis”.
With `COC(=O)C[C@H](NC(=O)[C@H](C)NC(=O)[C@@H](NC(=O)[C@H](CC(=O)OC)NC(=O)[C@@H](NC(=O)OCc1ccccc1)C(C)C)C(C)C)C(=O)CF` [zVDVAD-fmk] (Cbz-VD(OMe)VAD(OMe)-CH2F), in the experiment on T-47D cells [1] (T-47D, 20 μM in medium, data not shown), the “effect of caspase-2 chemical inhibitor on DD1-induced apoptosis” value is recorded as “efficiently blocked”.
Regarding “Bcl-2: anti-apoptotic Bcl-2 family protein co-expressed from a vector”, the “effect of co-expression on DD1-mediated apoptosis” value in the experiment with T-47D cells [1] (co-expressed with GFPNLS-DD1 in T-47D) is on record as “significantly inhibited”.
As for “DD1: death domain 1, residues 20-50 of NRIF3 (SEQ ID NO:11), co-resides with transrepression domain RepD1 (PSKITRKKSVITYSPTTGTCQMSLFASPTSS; sequence of DD1)”, the “induction of apoptosis (TUNEL and/or Annexin V)” value in the experiment with T-47D cells [3] is “efficient apoptosis; also recorded: underwent rapid apoptosis”; in the experiment with T-47D cells [3] (listed as RepD1), “efficiently induced death”. Further, the “sub-cellular location of AIF-GFP upon co-expression” value in the experiment with AIF-GFP was “translocation of AIF-GFP from mitochondria to the nucleus”. Further, the induction of apoptosis result is given as “efficient apoptosis” in the experiment on MCF-7 cells; “efficient apoptosis” in the experiment with MB-MDA-231 cells; “efficient apoptosis” in the experiment on MB-MDA-435 cells; “efficient apoptosis” in experiment [4]; “efficient apoptosis” in the experiment on HBL100 cells; “did not lead to apoptosis; also recorded: no detectable cell death” with HeLa cells [5]. Also, the induction of apoptosis entry was “did not lead to apoptosis; also recorded: no detectable cell death” in the experiment on 293, “did not lead to apoptosis” in the experiment on COS-1, “did not lead to apoptosis” in the experiment on UOK-145 and “did not lead to apoptosis” in the experiment on GH4C1.
